Source: the CheMixHub viscosity set
Values joined by “and” are separate entries in the source; they are usually repeats but may differ in a detail not shown here. Equal entries are not always repeated. ± gives the uncertainty stated by the source.

Experiment: xn = mol fraction of the nth substance listed

O=C1CCCCC1 + OCCO
293.15 K, 101.33 kPa
Settings	viscosity [mPa·s]
x2 = 0.1495	2.735 ± 1
x2 = 0.2349	3.114 ± 1
x2 = 0.293	3.566 ± 1
x2 = 0.4345	4.882 ± 1
x2 = 0.5042	5.922 ± 1
x2 = 0.5172	6.179 ± 1
x2 = 0.6565	9.855 ± 1
x2 = 0.6965	11.02 ± 1
x2 = 0.7152	11.2 ± 1
x2 = 0.7398	12.4 ± 1
x2 = 0.8522	17.59 ± 1
x2 = 0.8845	18.73 ± 1

CC(C)CC(C)(C)C + c1ccccc1
308.15 K, 101 kPa
Settings	viscosity [mPa·s]
x1 = 0.0565	0.5093 ± 0.0049
x1 = 0.1062	0.4873 ± 0.0047
x1 = 0.1666	0.4676 ± 0.0046
x1 = 0.2409	0.4496 ± 0.0044
x1 = 0.3214	0.436 ± 0.0044
x1 = 0.412	0.4255 ± 0.0043
x1 = 0.5227	0.4188 ± 0.0043
x1 = 0.6688	0.4174 ± 0.0043
x1 = 0.8154	0.423 ± 0.0045

CCCCCC(=O)O + c1ccccc1
298.15 K, 101 kPa
Settings	viscosity [mPa·s]
x1 = 0.03	0.626 ± 0.017
x1 = 0.07	0.653 ± 0.017
x1 = 0.11	0.684 ± 0.018
x1 = 0.14	0.718 ± 0.019
x1 = 0.31	0.908 ± 0.024
x1 = 0.4	1.058 ± 0.028
x1 = 0.5	1.284 ± 0.034
x1 = 0.73	1.844 ± 0.048

CCCCCCO + c1ccccc1
Settings	viscosity [mPa·s]
293.15 K, 100 kPa, x2 = 0.0814	4.394 ± 0.22
293.15 K, 100 kPa, x2 = 0.1623	3.612 ± 0.18
293.15 K, 100 kPa, x2 = 0.2401	3.045 ± 0.15
293.15 K, 100 kPa, x2 = 0.3536	2.371 ± 0.12
293.15 K, 100 kPa, x2 = 0.4411	1.932 ± 0.098
293.15 K, 100 kPa, x2 = 0.5516	1.507 ± 0.076
293.15 K, 100 kPa, x2 = 0.6465	1.218 ± 0.062
293.15 K, 100 kPa, x2 = 0.7441	0.979 ± 0.05
293.15 K, 100 kPa, x2 = 0.8425	0.828 ± 0.042
293.15 K, 100 kPa, x2 = 0.9324	0.728 ± 0.037
298.15 K, 101 kPa, x1 = 0.04	0.615 ± 0.016
298.15 K, 101 kPa, x1 = 0.078	0.633 ± 0.017
298.15 K, 101 kPa, x1 = 0.12	0.663 ± 0.018
298.15 K, 101 kPa, x1 = 0.16	0.709 ± 0.019
298.15 K, 101 kPa, x1 = 0.34	0.98 ± 0.026
298.15 K, 101 kPa, x1 = 0.43	1.195 ± 0.031
298.15 K, 101 kPa, x1 = 0.53	1.505 ± 0.039
298.15 K, 101 kPa, x1 = 0.75	2.444 ± 0.064
303 K, 101.33 kPa, x1 = 0.1001	0.6115 ± 0.016
303 K, 101.33 kPa, x1 = 0.2002	0.7018 ± 0.017
303 K, 101.33 kPa, x1 = 0.3	0.8271 ± 0.019
303 K, 101.33 kPa, x1 = 0.4002	0.9916 ± 0.022
303 K, 101.33 kPa, x1 = 0.5004	1.198 ± 0.026
303 K, 101.33 kPa, x1 = 0.6012	1.498 ± 0.033
303 K, 101.33 kPa, x1 = 0.6985	1.883 ± 0.043
303 K, 101.33 kPa, x1 = 0.8	2.387 ± 0.059
303 K, 101.33 kPa, x1 = 0.8982	2.971 ± 0.079
303.15 K, 100 kPa, x2 = 0.0814	3.292 ± 0.17
303.15 K, 100 kPa, x2 = 0.1623	2.773 ± 0.14
303.15 K, 100 kPa, x2 = 0.2401	2.333 ± 0.12
303.15 K, 100 kPa, x2 = 0.3536	1.832 ± 0.093
303.15 K, 100 kPa, x2 = 0.4411	1.514 ± 0.077
303.15 K, 100 kPa, x2 = 0.5516	1.175 ± 0.06
303.15 K, 100 kPa, x2 = 0.6465	0.951 ± 0.048
303.15 K, 100 kPa, x2 = 0.7441	0.797 ± 0.041
303.15 K, 100 kPa, x2 = 0.8425	0.684 ± 0.035
303.15 K, 100 kPa, x2 = 0.9324	0.604 ± 0.031
313 K, 101.33 kPa, x1 = 0.1001	0.5329 ± 0.015
313 K, 101.33 kPa, x1 = 0.2002	0.6064 ± 0.016
313 K, 101.33 kPa, x1 = 0.3	0.7078 ± 0.017
313 K, 101.33 kPa, x1 = 0.4002	0.8581 ± 0.019
313 K, 101.33 kPa, x1 = 0.5004	0.9873 ± 0.021
313 K, 101.33 kPa, x1 = 0.6012	1.194 ± 0.025
313 K, 101.33 kPa, x1 = 0.6985	1.49 ± 0.032
313 K, 101.33 kPa, x1 = 0.8	1.852 ± 0.041
313 K, 101.33 kPa, x1 = 0.8982	2.274 ± 0.052
313.15 K, 100 kPa, x2 = 0.0814	2.463 ± 0.12
313.15 K, 100 kPa, x2 = 0.1623	2.077 ± 0.11
313.15 K, 100 kPa, x2 = 0.2401	1.772 ± 0.089
313.15 K, 100 kPa, x2 = 0.3536	1.428 ± 0.072
313.15 K, 100 kPa, x2 = 0.4411	1.201 ± 0.061
313.15 K, 100 kPa, x2 = 0.5516	0.954 ± 0.048
313.15 K, 100 kPa, x2 = 0.6465	0.789 ± 0.04
313.15 K, 100 kPa, x2 = 0.7441	0.661 ± 0.034
313.15 K, 100 kPa, x2 = 0.8425	0.581 ± 0.03
313.15 K, 100 kPa, x2 = 0.9324	0.525 ± 0.027
323 K, 101.33 kPa, x1 = 0.1001	0.4717 ± 0.014
323 K, 101.33 kPa, x1 = 0.2002	0.53 ± 0.015
323 K, 101.33 kPa, x1 = 0.3	0.613 ± 0.015
323 K, 101.33 kPa, x1 = 0.4002	0.7007 ± 0.017
323 K, 101.33 kPa, x1 = 0.5004	0.8259 ± 0.018
323 K, 101.33 kPa, x1 = 0.6012	0.9863 ± 0.021
323 K, 101.33 kPa, x1 = 0.6985	1.209 ± 0.025
323 K, 101.33 kPa, x1 = 0.8	1.467 ± 0.03
323 K, 101.33 kPa, x1 = 0.8982	1.768 ± 0.037
323.15 K, 100 kPa, x2 = 0.0814	1.934 ± 0.098
323.15 K, 100 kPa, x2 = 0.1623	1.654 ± 0.084
323.15 K, 100 kPa, x2 = 0.2401	1.411 ± 0.071
323.15 K, 100 kPa, x2 = 0.3536	1.135 ± 0.057
323.15 K, 100 kPa, x2 = 0.4411	0.962 ± 0.049
323.15 K, 100 kPa, x2 = 0.5516	0.781 ± 0.04
323.15 K, 100 kPa, x2 = 0.6465	0.656 ± 0.033
323.15 K, 100 kPa, x2 = 0.7441	0.568 ± 0.029
323.15 K, 100 kPa, x2 = 0.8425	0.5 ± 0.026
323.15 K, 100 kPa, x2 = 0.9324	0.458 ± 0.024

CCOCC + c1ccccc1
Settings	viscosity
293.15 K, 101 kPa, x2 = 0.24	0.3 ± 0.008 mPa·s
293.15 K, 101 kPa, x2 = 0.49	0.381 ± 0.01 mPa·s
293.15 K, 101 kPa, x2 = 0.74	0.482 ± 0.013 mPa·s
293.15 K, 101.33 kPa, x1 = 0.2	0.504 ± 0.005 mPa·s and 0.504 ± 0.014 mPa·s
293.15 K, 101.33 kPa, x1 = 0.4	0.407 ± 0.011 mPa·s
293.15 K, 101.33 kPa, x1 = 0.5	0.371 ± 0.0037 mPa·s and 0.371 ± 0.01 mPa·s
293.15 K, 101.33 kPa, x1 = 0.6	0.339 ± 0.009 mPa·s
293.15 K, 101.33 kPa, x1 = 0.8	0.289 ± 0.008 mPa·s
298.15 K, 101 kPa, x1 = 0.2529	0.438 ± 0.012 mPa·s
298.15 K, 101 kPa, x1 = 0.4438	0.362 ± 0.01 mPa·s
298.15 K, 101 kPa, x1 = 0.7248	0.282 ± 0.008 mPa·s
298.15 K, 101 kPa, x2 = 0.24	0.288 ± 0.008 mPa·s
298.15 K, 101 kPa, x2 = 0.275	0.282 ± 0.004 mPa·s
298.15 K, 101 kPa, x2 = 0.49	0.366 ± 0.01 mPa·s
298.15 K, 101 kPa, x2 = 0.5563	0.362 ± 0.005 mPa·s
298.15 K, 101 kPa, x2 = 0.74	0.455 ± 0.012 mPa·s
298.15 K, 101 kPa, x2 = 0.7471	0.438 ± 0.006 mPa·s
303.15 K, 101 kPa, x2 = 0.24	0.278 ± 0.008 mPa·s
303.15 K, 101 kPa, x2 = 0.49	0.346 ± 0.009 mPa·s
303.15 K, 101 kPa, x2 = 0.74	0.43 ± 0.012 mPa·s
308.15 K, 101 kPa, x2 = 0.49	0.322 ± 0.009 mPa·s
308.15 K, 101 kPa, x2 = 0.74	0.408 ± 0.011 mPa·s

O=C1CCCCC1 + c1ccccc1
viscosity [mPa·s]
Settings	298.15 K	303.15 K	308.15 K
101 kPa, x1 = 0.0989	0.674 ± 0.091	–	–
101 kPa, x1 = 0.1983	0.731 ± 0.098	–	–
101 kPa, x1 = 0.2984	0.8 ± 0.11	–	–
101 kPa, x1 = 0.3848	0.865 ± 0.11	–	–
101 kPa, x1 = 0.5166	0.856 ± 0.11	–	–
101 kPa, x1 = 0.5909	1.086 ± 0.14	–	–
101 kPa, x1 = 0.6876	1.37 ± 0.17	–	–
101 kPa, x1 = 0.7775	1.481 ± 0.18	–	–
101 kPa, x1 = 0.8574	1.534 ± 0.19	–	–
101.33 kPa, x1 = 0.1014	0.661 ± 0.017	0.616 ± 0.016	0.574 ± 0.016
101.33 kPa, x1 = 0.1996	0.726 ± 0.019	0.676 ± 0.018	0.629 ± 0.017
101.33 kPa, x1 = 0.3037	0.803 ± 0.02	0.747 ± 0.019	0.694 ± 0.018
101.33 kPa, x1 = 0.4039	0.888 ± 0.022	0.824 ± 0.021	0.771 ± 0.02
101.33 kPa, x1 = 0.502	0.996 ± 0.025	0.942 ± 0.023	0.85 ± 0.021
101.33 kPa, x1 = 0.5997	1.122 ± 0.027	1.026 ± 0.025	0.945 ± 0.024
101.33 kPa, x1 = 0.7018	1.28 ± 0.031	1.175 ± 0.028	1.084 ± 0.027
101.33 kPa, x1 = 0.8023	1.472 ± 0.035	1.346 ± 0.032	1.236 ± 0.03
101.33 kPa, x1 = 0.9237	1.773 ± 0.041	1.61 ± 0.038	1.472 ± 0.035
